Patent US9249147B2, “Tyrosine kinase inhibitors” (CHEMBRIDGE CORPORATION, priority 2008, dated 2016)
Where “and” joins values, the source holds several entries; their conditions need not be identical. Identical values can stand only once. Like-named read-outs stand apart in the source and are kept apart here.

What was measured:
[1] = biological target: T1, IGF1R (Homo sapiens, UniProt P08069); assay: IGF1R kinase assay; assay type: biochemical
T1 construct: 6×His- or GST-tagged kinase domain fragments of the corresponding RTKs expressed in baculovirus system; host or cells: baculovirus system
Summary of the method: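 The AlphaScreen PT66 format of the NPM-ALK assay was applied with minor modifications to commercial recombinant His/GST-tagged kinase domains. Compound (0.078125–40 μM) was incubated 30 min at RT with 10 μM ATP and biotinylated poly-GT in Tris pH 7.5/MgCl2/MnCl2/DTT buffer, then beads 60 min. Read at 520–680 nm; IC50 and Ki derived.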

[2] = biological target: TRKA (Homo sapiens, UniProt P04629); assay: TRKA kinase assay; assay type: biochemical; design: 6×His- or GST-tagged kinase domain fragments of the corresponding RTKs expressed in baculovirus system; host or cells: baculovirus system; conditions: Table 1; read-out: TRKA IC50
[3] = biological target: T2, IRK (Homo sapiens, UniProt P06213); assay: IRK (insulin receptor kinase) assay; assay type: biochemical; conditions: Table 1; read-out: IRK IC50
T2 construct: 6×His- or GST-tagged kinase domain fragments of the corresponding RTKs expressed in baculovirus system; host or cells: baculovirus system
Protocol: To determine inhibition of several tyrosine kinases, such as IGF1R, InsR, Alk, TrkA and Jak2, kinase assays are conducted using either Kinase-Glo (Promega) or AlphaScreen (PerkinElmer) kinase assay platforms. The Kinase-Glo Luminescent Kinase Assay is a homogeneous method for measuring kinase activity by determining the amount of ATP remaining after a kinase reaction. The luminescent signal is proportional to the amount of ATP and inversely proportional to the amount of kinase activity. Tyrosine kinase PT66 AlphaScreen Assay is a high-sensitivity homogeneous, anti-phosphotyrosine antibody-mediated luminescent proximity method measuring incorporation of phosphate in synthetic poly(Glu-Tyr) substrate. The kinase preparations used consist of purified recombinant, 6×His- or GST-tagged kinase domain fragments of the corresponding RTKs expressed in baculovirus system.
Compounds with a range of concentrations 40 μM, 20 μM, 10 μM, 5 μM, 2.5 μM, 1.25 μM, 0.625 μM, 0.3125 μM, 0.15625 μM and 0.078125 μM were incubated with NPM-ALK, which was produced in insect cells as a 6×HIS-tagged fusion protein and purified using nickel-charged resin chromatography, for 30 minutes at RT in the presence of 10 μM ATP and 7.0 ng biotinylated poly-GT. A 1:1 mixture of […] and donor beads was then added to the reaction and incubated for an additional 60 minutes at RT. The assay was conducted on a MultiPROBE liquid handling workstation (PerkinElmer) in a 384-well plate format with a total reaction volume of 40 μL per well. Working stocks of all compounds were dissolved in 100% DMSO and serial dilutions of the compounds were performed using kinase buffer (50 mM Tris-HCl (pH 7.5), 5 mM MgCl2, 5 mM MnCl2, 2 mM DTT (added freshly before use), 0.01% Tween-20) containing 5% DMSO. […] Data were collected as optical readings at 520-680 nm on a Fusion™ microplate analyzer (PerkinElmer), and IC50 and Ki values calculated using PRISM3.0 software (GraphPad Software, Inc., San Diego, Calif.). The same assay was also used with minor modifications to assess the IC50 and Ki values for selected compounds against five other tyrosine kinases (IRK, IGF1R, Flt3, Abl, Src), all of which were purchased from commercial vendors. PolyGT-Biotin was bought from CIS Biointernational Cat. #61GT0BLD; ATP—from Sigma Cat. # A7699; sodium orthovanadate—from Sigma Cat. #S-6508; phosphotyrosine (PT66) assay kit from PerkinElmer Cat. #6760602M; automated workstation tips (20 μL): PerkinElmer Cat. #6000657; and OptiPlate-384 (white)—from PerkinElmer Cat. #6007299.

[4] = biological target: ALK (Homo sapiens, UniProt Q9UM73); assay: ALK kinase assay (Kinase-Glo / AlphaScreen, purified NPM-ALK); assay type: biochemical; design: fused to the complete intracytoplasmic portion of ALK containing the functional tyrosine kinase domain; 6xHis; made in house; host or cells: insect cells; the other entry of the earlier key: NPM1 (P06748, Nucleophosmin)
[5] = Plasma Protein Binding (Human), equilibrium dialysis; assay type: in vitro ADME; conditions: 1.0E−05 M; for % Protein Bound, Mean: equilibrium dialysis; for % Protein Bound, 1st/2nd: individual data
[6] = tested on: JB6; assay: Cell proliferation inhibition, ALCL line JB6; assay type: cell-based; conditions: Table 2, cell line, read-out: IC50 ALCL (ALK) JB6
Text: (§1) Cell proliferation inhibition assays were run for compound (II) with the five target NPM-ALK-dependent ALCL cell lines (Karpas 299, SuDHL-1, JB6, SupM2, UConn) and 12 unrelated cell lines (HEK293, CHO-K1, MCF7, HepG2, H292, H520, H1581, H596, H522, CHA-GO-K1, UMC-11, SK-MES1). […] The pronounced target cell-killing effect is also observed (molecular mechanisms to be determined).

[7] = tested on: Karpas299; assay: Cell proliferation inhibition, ALCL line Karpas299; assay type: cell-based; conditions: Homo sapiens, KARPAS-299; Table 2, cell line; read-out: IC50 ALCL (ALK) Karpas299
Text: The IL-3-dependent lymphoid cell line BaF3 or BaF3 rendered IL-3-independent by engineered expression of NPM-ALK were used in parallel to test each candidate inhibitor. Control wells contained DMSO solvent without test compound. Specific inhibition of ALK signaling is indicated in the assay by impairment of NPM-ALK-expressing BaF3 cell growth without alterations in the growth of parental BaF3. This colorimetric assay of cell proliferation and viability is based upon reduction of the yellow monotetrazolium salt XTT to a water-soluble orange formazan dye, a reaction catalyzed by mitochondrial dehydrogenases in living cells only (Cell Proliferation Kit II, Cat. #1 465 015, Roche Biochemicals). In addition to testing compounds for their ability to impair the growth of BaF3 cells engineered to express NPM-ALK, the NPM-ALK-positive human lymphoma cell line Karpas-299 (Deutsche Sammlung von Mikroorganismen and Zellkulturen GmbH (DSMZ) no. ACC 31), the human BCR-ABL-positive chronic myeloid leukemia cell line K562 (American Type Culture Collection (ATCC) no. CCL-243), and the human T-cell leukemia line Jurkat (DSMZ no. ACC 282) were tested in these assays.
Each compound stock in 100% DMSO was first diluted using 8% DMSO/culture medium to produce a working stock of 250 μM compound. This working stock was then used to perform serial 1:1 dilutions (i.e., 125 μM, 62.5 μM, 31.25 μM, 15.625 μM, 7.8125 μM, and 3.90625 μM) using DMSO-free culture medium. Twenty (20) μL of each of these dilutions was then added to the cells (2×10^4 cells in 80 μL culture medium per 96-well) to obtain the final test compound concentrations (i.e., 25 μM, 12.5 μM, 6.25 μM, 3.125 μM, 1.5625 μM, and 0.78125 μM).
as §1

[8] = tested on: WI38; assay: Cell line IC50, control WI38; assay type: cell-based; conditions: Homo sapiens, WI-38; Table 2, cell line
[9] = tested on: UConn; assay: Cell proliferation inhibition, ALCL line UConn; assay type: cell-based; conditions: Table 2, cell line; read-out: IC50 ALCL (ALK) Uconn
Text: as §1

[10] = tested on: H929; assay: Cell line IC50, MM (IGF1R) H929; assay type: cell-based; conditions: Homo sapiens, NCI-H929; Table 2, cell line
[11] = Table 2, read-out: Enzymatic IGF1R IC50
[12] = Table 2, read-out: Enzymatic ALK IC50

Chain of TRKA (P04629 510-781 limits assumed): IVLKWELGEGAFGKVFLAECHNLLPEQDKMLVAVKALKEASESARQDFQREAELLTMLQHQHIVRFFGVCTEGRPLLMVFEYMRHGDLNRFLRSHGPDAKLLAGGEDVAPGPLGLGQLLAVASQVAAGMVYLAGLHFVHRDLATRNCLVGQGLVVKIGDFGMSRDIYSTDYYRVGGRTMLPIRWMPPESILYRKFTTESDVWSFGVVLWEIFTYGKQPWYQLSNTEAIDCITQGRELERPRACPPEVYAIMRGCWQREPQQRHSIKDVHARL
T1 sequence (P08069 999-1274 limits assumed): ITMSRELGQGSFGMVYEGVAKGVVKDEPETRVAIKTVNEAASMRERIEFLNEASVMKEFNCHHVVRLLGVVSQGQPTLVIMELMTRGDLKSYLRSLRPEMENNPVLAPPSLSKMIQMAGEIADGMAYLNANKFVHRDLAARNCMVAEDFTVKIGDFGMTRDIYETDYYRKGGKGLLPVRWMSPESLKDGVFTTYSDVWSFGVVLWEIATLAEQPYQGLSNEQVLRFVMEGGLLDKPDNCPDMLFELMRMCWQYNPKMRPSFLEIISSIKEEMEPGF
T2 sequence (P06213 1023-1298 limits assumed): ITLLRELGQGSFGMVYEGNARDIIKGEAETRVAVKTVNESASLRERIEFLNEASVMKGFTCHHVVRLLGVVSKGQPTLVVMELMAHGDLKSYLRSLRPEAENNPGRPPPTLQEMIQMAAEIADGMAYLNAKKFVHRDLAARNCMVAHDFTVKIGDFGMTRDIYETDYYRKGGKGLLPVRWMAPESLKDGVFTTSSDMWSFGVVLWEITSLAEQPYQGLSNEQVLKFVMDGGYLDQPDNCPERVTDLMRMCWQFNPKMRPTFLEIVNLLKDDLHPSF
Chain of ALK (Q9UM73 with tags, fused parts or gaps): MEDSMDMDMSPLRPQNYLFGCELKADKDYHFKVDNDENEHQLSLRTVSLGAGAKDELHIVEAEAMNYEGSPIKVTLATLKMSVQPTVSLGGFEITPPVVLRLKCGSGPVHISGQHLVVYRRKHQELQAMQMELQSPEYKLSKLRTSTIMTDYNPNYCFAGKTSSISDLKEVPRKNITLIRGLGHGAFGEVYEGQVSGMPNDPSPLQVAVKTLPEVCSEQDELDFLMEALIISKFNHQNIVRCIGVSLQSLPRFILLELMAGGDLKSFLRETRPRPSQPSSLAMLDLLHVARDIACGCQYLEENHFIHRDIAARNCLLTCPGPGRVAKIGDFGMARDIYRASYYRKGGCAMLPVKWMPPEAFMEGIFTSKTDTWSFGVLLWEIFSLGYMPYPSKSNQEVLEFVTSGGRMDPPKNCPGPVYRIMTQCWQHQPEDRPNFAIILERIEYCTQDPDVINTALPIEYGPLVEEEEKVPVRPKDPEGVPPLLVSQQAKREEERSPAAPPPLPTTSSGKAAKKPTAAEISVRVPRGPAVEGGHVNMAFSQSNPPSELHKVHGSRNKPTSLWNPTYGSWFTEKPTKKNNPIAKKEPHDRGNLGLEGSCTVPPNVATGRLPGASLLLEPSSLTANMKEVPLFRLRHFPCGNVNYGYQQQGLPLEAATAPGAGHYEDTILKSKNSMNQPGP

SMILES	IC50 ([1]; Table 1, read-out: IGF1R IC50)	IC50 [2]	IC50 [3]	IC50 ([4]; Table 1, read-out: ALK IC50)	% Protein Bound, Mean [5]	% Protein Bound, 1st/2nd [5]	IC50 [1, 11]	IC50 [6]	IC50 [7]	IC50 [8]	IC50 [4, 12]	IC50 [9]	IC50 [10]
Cc1cccc(C)c1C[C@H](C)Nc1cc[nH]c(=O)c1-c1nc2cc3c(cc2[nH]1)C(=O)N(CCN1CCCC1)C3	> 1000 nM	< 10 nM	> 1000 nM	10 to 100 nM	–	–	–	–	–	–	–	–	–
Cc1c(F)cccc1C[C@H](C)Nc1cc[nH]c(=O)c1-c1nc2cc3c(cc2[nH]1)C(=O)N(CCN1CCCC1)C3	250 to 1000 nM	< 10 nM	100 to 250 nM	10 to 100 nM	–	–	–	–	–	–	–	–	–
O=C1NC(=O)c2cc3[nH]c(-c4c(NC[C@@H](O)c5cccc(Cl)c5)cc[nH]c4=O)nc3cc21	250 to 1000 nM	100 to 250 nM	> 1000 nM	> 1000 nM	–	–	–	–	–	–	–	–	–
O=C1c2cc3nc(-c4c(NC[C@@H](O)c5cccc(Cl)c5)cc[nH]c4=O)[nH]c3cc2C(=O)N1CCN1CCCC1	10 to 100 nM	10 to 100 nM	100 to 250 nM	10 to 100 nM	–	–	–	–	–	–	–	–	–
CCCC(=O)Nc1ccc(OCC(O)CNC(C)C)c(C(C)=O)c1 (centres unmarked) [Acebutolol]	–	–	–	–	19.2%	21.4% and 16.9%	–	–	–	–	–	–	–
CC(=O)CC(c1ccccc1)c1c(O)c2ccccc2oc1=O (centres unmarked) [Warfarin]	–	–	–	–	99.2%	99.2%	–	–	–	–	–	–	–
Cc1ccc(F)cc1C[C@H](C)Nc1cc[nH]c(=O)c1-c1nc2cc3c(cc2[nH]1)C(=O)N(CCN1CCCC1)C3 [drawing 303]	100 to 250 nM	< 10 nM	100 to 250 nM	< 10 nM	–	–	–	–	–	–	–	–	–
Cc1ccc(F)cc1C[C@H](C)Nc1cc[nH]c(=O)c1-c1nc2cc3c(cc2[nH]1)CN(CCN(C)C)C3=O [drawing 316]	100 to 250 nM	< 10 nM	100 to 250 nM	< 10 nM	–	–	–	–	–	–	–	–	–
Cc1ccc(F)cc1C[C@H](C)Nc1cc[nH]c(=O)c1-c1nc2cc3c(cc2[nH]1)C(=O)N(CCN1CCCC1)C3 [drawing 350]	–	–	–	–	–	–	100 to 250 nM	< 10 nM	< 10 nM	> 1000 nM	< 10 nM	10 to 100 nM	250 to 1000 nM
Cc1ccc(F)cc1C[C@H](C)Nc1cc[nH]c(=O)c1-c1nc2c(C)c3c(cc2[nH]1)CN(CCN1CCCC1)C3=O [drawing 351]	–	–	–	–	–	–	100 to 250 nM	< 10 nM	< 10 nM	> 1000 nM	< 10 nM	10 to 100 nM	250 to 1000 nM
C[C@@H](Cc1c(F)c(F)cc(F)c1F)Nc1cc[nH]c(=O)c1-c1nc2cc3c(cc2[nH]1)CN(CCN1CCCC1)C3=O [drawing 352]	–	–	–	–	–	–	> 1000 nM	< 10 nM	< 10 nM	> 1000 nM	< 10 nM	10 to 100 nM	250 to 1000 nM
C[C@@H]1CCCN1CCN1Cc2cc3[nH]c(-c4c(N[C@@H](C)Cc5cc(F)cc(F)c5F)cc[nH]c4=O)nc3cc2C1=O [drawing 353]	–	–	–	–	–	–	> 1000 nM	< 10 nM	< 10 nM	> 1000 nM	< 10 nM	10 to 100 nM	250 to 1000 nM
Cc1ccc(F)cc1C[C@H](C)Nc1cc[nH]c(=O)c1-c1nc2cc3c(cc2[nH]1)CN(CCN1CCC[C@H]1C)C3=O [drawing 354]	–	–	–	–	–	–	> 1000 nM	10 to 100 nM	10 to 100 nM	> 1000 nM	10 to 100 nM	10 to 100 nM	250 to 1000 nM
CNCCN1Cc2cc3[nH]c(-c4c(N[C@@H](C)Cc5cc(F)ccc5C)cc[nH]c4=O)nc3cc2C1=O [drawing 355]	–	–	–	–	–	–	10 to 100 nM	< 10 nM	10 to 100 nM	> 1000 nM	< 10 nM	10 to 100 nM	250 to 1000 nM
C[C@@H](Cc1cc(F)cc(F)c1F)Nc1cc[nH]c(=O)c1-c1nc2cc3c(cc2[nH]1)CN(CCN(C)C)C3=O [drawing 356]	–	–	–	–	–	–	100 to 250 nM	10 to 100 nM	10 to 100 nM	> 1000 nM	< 10 nM	10 to 100 nM	250 to 1000 nM
Cc1ccc(F)cc1C[C@H](C)Nc1cc[nH]c(=O)c1-c1nc2cc3c(cc2[nH]1)CN(CCN(C)C)C3=O [drawing 357]	–	–	–	–	–	–	100 to 250 nM	10 to 100 nM	10 to 100 nM	> 1000 nM	< 10 nM	10 to 100 nM	250 to 1000 nM
C[C@@H](Cc1cc(F)cc(F)c1F)Nc1cc[nH]c(=O)c1-c1nc2cc3c(cc2[nH]1)CN(CCN1CCCC1)C3=O [drawing 358]	–	–	–	–	–	–	250 to 1000 nM	10 to 100 nM	10 to 100 nM	> 1000 nM	10 to 100 nM	10 to 100 nM	250 to 1000 nM
C[C@@H](Cc1cc(F)ccc1Br)Nc1cc[nH]c(=O)c1-c1nc2cc3c(cc2[nH]1)CN(CCN1CCCC1)C3=O [drawing 359]	–	–	–	–	–	–	250 to 1000 nM	10 to 100 nM	10 to 100 nM	> 1000 nM	10 to 100 nM	100 to 250 nM	250 to 1000 nM
